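Cells were grown in 96-well plates and exposed to each compound for 48 hours at five concentrations; endpoints were interpolated linearly between bracketing concentrations, or set to the highest concentration if not reached. GI50 is the concentration that inhibits growth by half. TGI: total growth inhibition.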
Columns and labels:
Assay in all cases: NCI-60 cell line screen, 48 h
[1] = system: 786-0 renal
[2] = system: A498 renal
[3] = system: A549 NSCLC
[4] = system: ACHN renal
[5] = system: BT-549 breast
[6] = system: CAKI-1 renal
[7] = system: COLO 205 colon
[8] = system: DU-145 prostate
[9] = system: EKVX NSCLC
[10] = system: HCC-2998 colon
[11] = system: HCT-116 colon
[12] = system: HCT-15 colon
[13] = system: HL-60(TB) leukemia
[14] = system: HOP-62 NSCLC
[15] = system: HOP-92 NSCLC
[16] = system: HS 578T breast
[17] = system: HT29 colon
[18] = system: IGROV1 ovarian
[19] = system: KM12 colon
[20] = system: LOX IMVI melanoma
[21] = system: M14 melanoma
[22] = system: MALME-3M melanoma
[23] = system: MCF7 breast
[24] = system: MDA-MB-231 breast
[25] = system: MDA-MB-435
[26] = system: MDA-N
[27] = system: MOLT-4 leukemia
[28] = system: NCI-H226 lung
[29] = system: NCI-H23 lung
[30] = system: NCI-H460 lung
[31] = system: NCI-H522 lung
[32] = system: NCI/ADR-RES ovarian
[33] = system: OVCAR-3 ovarian
[34] = system: OVCAR-4 ovarian
[35] = system: OVCAR-5 ovarian
[36] = system: OVCAR-8 ovarian
[37] = system: PC-3 prostate
[38] = system: RPMI-8226 leukemia
[39] = system: RXF 393 renal
[40] = system: SF-268 CNS
[41] = system: SF-295 CNS
[42] = system: SF-539 CNS
[43] = system: SK-MEL-2 melanoma
[44] = system: SK-MEL-28 melanoma
[45] = system: SK-MEL-5 melanoma
[46] = system: SK-OV-3 ovarian
[47] = system: SN12C renal
[48] = system: SNB-19 CNS
[49] = system: SNB-75 CNS
[50] = system: SR leukemia
[51] = system: SW-620 colon
[52] = system: T-47D breast
[53] = system: TK-10 renal
[54] = system: U251 CNS
[55] = system: UACC-257 melanoma
[56] = system: UACC-62 melanoma
[57] = system: UO-31 renal
[58] = system: CCRF-CEM leukemia
[59] = system: DLD-1 colon
[60] = system: DMS 114 small cell lung
[61] = system: DMS 273 small cell lung
[62] = system: HOP-18 NSCLC
[63] = system: K-562 leukemia
[64] = system: LXFL 529 NSCLC
[65] = system: M19-MEL melanoma
[66] = system: SNB-78 CNS
[67] = system: KM20L2 colon

Cc1cc(=O)oc2cc(SC(=O)N(C)C)ccc12
TGI [1]: > 100 µM | TGI [2]: > 100 µM | TGI [3]: > 100 µM | TGI [4]: > 100 µM | TGI [5]: > 100 µM | TGI [6]: > 100 µM | TGI [7]: > 100 µM | TGI [8]: > 100 µM | TGI [9]: > 100 µM | TGI [10]: > 100 µM | TGI [11]: > 100 µM | TGI [12]: > 100 µM | TGI [13]: > 100 µM | TGI [14]: > 100 µM | TGI [15]: > 100 µM | TGI [16]: > 100 µM | TGI [17]: > 100 µM | TGI [18]: > 100 µM | TGI [19]: > 100 µM | TGI [20]: > 100 µM | TGI [21]: > 100 µM | TGI [22]: > 100 µM | TGI [23]: > 100 µM | TGI [24]: > 100 µM | TGI [25]: > 100 µM | TGI [26]: > 100 µM | TGI [27]: > 100 µM | TGI [28]: > 100 µM | TGI [29]: > 100 µM | TGI [30]: > 100 µM | TGI [31]: > 100 µM | TGI [32]: > 100 µM | TGI [33]: > 100 µM | TGI [34]: > 100 µM | TGI [35]: > 100 µM | TGI [36]: > 100 µM | TGI [37]: > 100 µM | TGI [38]: > 100 µM | TGI [39]: > 100 µM | TGI [40]: > 100 µM | TGI [41]: > 100 µM | TGI [42]: > 100 µM | TGI [43]: > 100 µM | TGI [44]: > 100 µM | TGI [45]: > 100 µM | TGI [46]: > 100 µM | TGI [47]: > 100 µM | TGI [48]: > 100 µM | TGI [49]: > 100 µM | TGI [50]: > 100 µM | TGI [51]: > 100 µM | TGI [52]: > 100 µM | TGI [53]: > 100 µM | TGI [54]: > 100 µM | TGI [55]: > 100 µM | TGI [56]: > 100 µM | TGI [57]: > 100 µM

Cc1c(-c2ccccc2)c(=O)oc2ccc(Cl)cc12
TGI [1]: > 100 µM | TGI [2]: > 100 µM | TGI [3]: > 100 µM | TGI [58]: > 100 µM | TGI [7]: > 100 µM | TGI [59]: > 100 µM | TGI [60]: > 100 µM | TGI [61]: > 100 µM | TGI [9]: > 100 µM | TGI [10]: > 100 µM | TGI [11]: > 100 µM | TGI [12]: > 100 µM | TGI [13]: > 100 µM | TGI [62]: > 100 µM | TGI [14]: > 100 µM | TGI [15]: > 100 µM | TGI [17]: > 100 µM | TGI [18]: > 100 µM | TGI [63]: > 100 µM | TGI [19]: > 100 µM | TGI [20]: > 100 µM | TGI [64]: > 100 µM | TGI [21]: > 100 µM | TGI [65]: > 100 µM | TGI [22]: > 100 µM | TGI [27]: > 100 µM | TGI [28]: > 100 µM | TGI [29]: > 100 µM | TGI [30]: > 100 µM | TGI [31]: > 100 µM | TGI [33]: > 100 µM | TGI [34]: > 100 µM | TGI [35]: > 100 µM | TGI [36]: > 100 µM | TGI [38]: > 100 µM | TGI [40]: > 100 µM | TGI [41]: > 100 µM | TGI [42]: > 100 µM | TGI [43]: > 100 µM | TGI [44]: > 100 µM | TGI [45]: > 100 µM | TGI [46]: > 100 µM | TGI [47]: > 100 µM | TGI [48]: > 100 µM | TGI [49]: 43.7 µM | TGI [66]: > 100 µM | TGI [50]: > 100 µM | TGI [51]: > 100 µM | TGI [53]: > 100 µM | TGI [54]: > 100 µM | TGI [55]: > 100 µM | TGI [56]: > 100 µM | TGI [57]: > 100 µM

N.N.N.N.O=NN1CCCCCC1(P(=O)([O-])[O-])P(=O)([O-])[O-].[Pt+4].[Pt+4]
GI50 [1]: > 100 µM | TGI [1]: > 100 µM | GI50 [2]: > 100 µM | TGI [2]: > 100 µM | GI50 [3]: > 100 µM | TGI [3]: > 100 µM | GI50 [4]: > 100 µM | TGI [4]: > 100 µM | GI50 [6]: > 100 µM | TGI [6]: > 100 µM | GI50 [58]: > 100 µM | TGI [58]: > 100 µM | GI50 [7]: > 100 µM | TGI [7]: > 100 µM | GI50 [59]: > 100 µM | TGI [59]: > 100 µM | GI50 [61]: > 100 µM | TGI [61]: > 100 µM | GI50 [9]: > 100 µM | TGI [9]: > 100 µM | GI50 [10]: > 100 µM | TGI [10]: > 100 µM | GI50 [11]: > 100 µM | TGI [11]: > 100 µM | GI50 [12]: > 100 µM | TGI [12]: > 100 µM | GI50 [13]: > 100 µM | TGI [13]: > 100 µM | GI50 [62]: > 100 µM | TGI [62]: > 100 µM | GI50 [14]: > 100 µM | TGI [14]: > 100 µM | GI50 [15]: > 100 µM | TGI [15]: > 100 µM | GI50 [17]: > 100 µM | TGI [17]: > 100 µM | GI50 [18]: > 100 µM | TGI [18]: > 100 µM | GI50 [63]: > 100 µM | TGI [63]: > 100 µM | GI50 [19]: > 100 µM | TGI [19]: > 100 µM | GI50 [67]: > 100 µM | TGI [67]: > 100 µM | GI50 [20]: > 100 µM | TGI [20]: > 100 µM | GI50 [64]: > 100 µM | TGI [64]: > 100 µM | GI50 [21]: > 100 µM | TGI [21]: > 100 µM | GI50 [22]: > 100 µM | TGI [22]: > 100 µM | GI50 [27]: > 100 µM | TGI [27]: > 100 µM | GI50 [28]: > 100 µM | TGI [28]: > 100 µM | GI50 [29]: > 100 µM | TGI [29]: > 100 µM | GI50 [30]: > 100 µM | TGI [30]: > 100 µM | GI50 [31]: > 100 µM | TGI [31]: > 100 µM | GI50 [33]: > 100 µM | TGI [33]: > 100 µM | GI50 [34]: > 100 µM | TGI [34]: > 100 µM | GI50 [35]: > 100 µM | TGI [35]: > 100 µM | GI50 [36]: > 100 µM | TGI [36]: > 100 µM | GI50 [38]: > 100 µM | TGI [38]: > 100 µM | GI50 [39]: > 100 µM | TGI [39]: > 100 µM | GI50 [40]: > 100 µM | TGI [40]: > 100 µM | GI50 [41]: > 100 µM | TGI [41]: > 100 µM | GI50 [42]: > 100 µM | TGI [42]: > 100 µM | GI50 [43]: 79.6 µM | TGI [43]: > 100 µM | GI50 [44]: > 100 µM | TGI [44]: > 100 µM | GI50 [45]: > 100 µM | TGI [45]: > 100 µM | GI50 [46]: > 100 µM | TGI [46]: > 100 µM | GI50 [47]: > 100 µM | TGI [47]: > 100 µM | GI50 [48]: > 100 µM | TGI [48]: > 100 µM | GI50 [49]: > 100 µM | TGI [49]: > 100 µM | GI50 [51]: > 100 µM | TGI [51]: > 100 µM | GI50 [53]: > 100 µM | TGI [53]: > 100 µM | GI50 [54]: > 100 µM | TGI [54]: > 100 µM | GI50 [55]: > 100 µM | TGI [55]: > 100 µM | GI50 [56]: > 100 µM | TGI [56]: > 100 µM | GI50 [57]: > 100 µM | TGI [57]: > 100 µM

Reference: PubChem BioAssay (NCI)
